Results reported in US8163513B2, “Method for determining the total clotting activity of a blood or plasma sample” (JenAffin GmbH, priority 2005, dated 2012).

Test system: thrombin
Assay: THROGA (thrombin generation assay): maximal thrombin generation in citrate blood or plasma of treated patients
Type: in vivo, human
Method: For maximal generation of thrombin, a small amount of anti-coagulant blood or plasma is used. For this, citrate, but also every other anti-coagulant may be used. 0.1 ml citrate blood or citrate plasma each are put into a reference tube (NaCl) and an activator tube (tissue factor+mixture of ellagic acid and phospholipids) in which a defined amount of hirudin is present. After closing the reaction vessels, the two containers are mixed in a mini shaker at 550 rpm at room temperature for 25 minutes. The activation of coagulation is subsequently terminated with a stop solution containing EDTA and the remaining not-consumed free hirudin is determined with a precise detection method. For the exact measurement of the hirudin content in the reaction vessels, a commercial available chromogenic hirudin determination method via chromogenic substrate (ECA, Ecarin Chromogenic Assay, WO 0046602) is employed.
For one determination, 100 μl citrate blood or citrate plasma, respectively, are put into one activator tube and one reference tube each. In order to avoid evaporation, the tubes should be closed after dissolving (“Lösen”). Subsequently, the tubes are put into a shaker for 30-60 minutes. In order to terminate the reaction after shaking, 1000 μl stop reagent are added into each tube and carefully mixed with the pipette.
In both THROGA-samples (reference tube and activator tube) the anti-thrombin units (ATU) are now determined via ECA-H.
From the ATU determined in reference tube and activator tube, respectively, the thrombin units formed in the plasma or blood sample are calculated with the following formula: ETP=R−A • ETP maximal endogenic thrombin potential, thrombin units formed in 1 ml blood or plasma • R anti-thrombin units in the reference tube (ATU/ml blood or plasma) • A anti-thrombin units in the activator tube (ATU/ml blood or plasma) Generating a Reference Curve

[1] = patient two under falithrom, blood
[2] = patient two under falithrom, plasma

Structure (SMILES): CCC(c1ccccc1)c1c(O)c2ccccc2oc1=O (stereo not shown) [falithrom]
- % of the normal generable thrombin amount in the blood [1]: 60%
- generated thrombin in the blood [1]: 46.3 TU/ml
- bleeding tendency (patient two under falithrom, judged from the THROGA-value in blood): no bleeding tendency can be observed
- % of the normal plasma value [2]: 32%
- generated thrombin in the plasma [2]: 39.3 TU/ml
- Difference control (A) minus activated sample (B), blood (patient two, thrombophilia upon gammopathy, thrombosis prophylaxis with falithrom, blood, use of the kit): 46.3 ATU/ml
- Difference control (A) minus activated sample (B), plasma (patient two, thrombosis prophylaxis with falithrom, plasma, use of the kit): 39.3 ATU/ml

Structure (SMILES): COC(=O)[C@H](c1ccccc1Cl)N1CCc2sccc2C1 [clopidogrel]
- ATU/ml; TU/ml (generated thrombin, THROGA-value), blood (patient one, state after cerebral insult, after 8 weeks of clopidogrel, 1.5 tablets daily (112.5 mg), blood, norm 78±13 TU/ml, 99.5 prior to therapy): 82.2 TU/ml
- THROGA-values in all further controls (patient one, under clopidogrel therapy): normal
- ATU/ml; TU/ml (generated thrombin, THROGA-value), plasma (patient one, after 8 weeks of clopidogrel, 1.5 tablets daily (112.5 mg), plasma, N: 122±19 TU/ml, 118.5 prior to therapy): 116.9 TU/ml
